Experimental data from patent US7132287B2, “Method for neural stem cell differentiation using 5HT-1A agonists” (Psychiatric Genomics, Inc., priority 2001, dated 2006).

Tested on: cerebellar stem cells
Experiment: Neuronal differentiation of cerebellar stem cells (TuJ1 positive cells)
Format: cell-based, rat
Source text: Isolation and quantitation of cerebellar stem cells. Neural stem cells were isolated from rat embryos (obtained from Taconic) at the 19th day of gestation (E19). The rats were sacrificed by inhalation of excess carbon dioxide. The abdomen of the rat was cleaned with 70% ethanol and the uterus was removed quickly and aseptically on the bench top. The uterus was placed in ice cold PBS (GIBCO Cat. # 20012-027) in a 200-ml beaker.
The cerebellar tissue was dissected under a microscope according to the following procedure and collected in a 15-ml tube containing HBSS on ice. The dissection should be completed in 1–2 hours (optimally) and the pH of the HBSS should remain neutral. First, the neck of the embryos was severed towards the bottom and the heads were collected in cold PBS. Next, the skin and scalp was removed from neck and head of the embryo. The brain, including the cerebral cortex, midbrain, cerebellum and some of the spinal cord, was removed by dissection under a microscope and transfered into a clean dish with fresh, cold PBS. The cerebellar region was dissected and cleaned of extraneous tissue, including removal of the meninges, and transferred into cold HBSS in a clean 15 ml tube.
The tube containing the cerebellar tissue was centrifuged at 1,000 RPM for 2 min at 15 C., followed by slow, careful aspiration of the HBSS supernatant (care should be taken to avoid aspirating tissue). (It is best to limit the centrifugation steps as much as possible.) About 1 to 3 ml of DMEM/F12/N2 medium (see below) was immediately added to the remaining tissue; the volume of medium depends on the quantity of the dissected tissue. The tissue was gently triturated about 8 to 10 times using a P-1000 Pipetteman until the tissue was dissociated (as evidenced by cloudy solution), then the tube was incubated in the hood for 5 minutes at room temperature to permit settlement of small particles of undissociated tissue. The supernatant was then transferred into a fresh tube, taking care to avoid the smaller particles of tissue that remained at the bottom of the tube.
Plating and expansion of cerebellar stem cells. The triturated cell suspension of E19 rat cerebellum was seeded into pre-coated 10 cm dishes at 2×10^6 cells per dish. This is denoted as the P0 culture (passage 0). The cells were grown in 5 ml of DMEM/F12/N2 supplemented with 25 mg/L insulin and 10 ng/ml bFGF at 37 C, 5% CO2 and 90% humidity.
Cells were fed daily with 10 ng/ml bFGF. The medium was changed one day after the cells were seeded, and thereafter every other day. On about day 4 of the culture, or when cells reached 70% confluence, the culture was passaged (see “Passage of cerebellar stem cells” below) and seeded into 10 cm dishes at an initial density of 2×10^6 cells per dish. This is denoted as the P1 culture (passage 1). The passaged cells at P1 were grown in DMEM/F12/N2 medium supplemented with 25 mg/L insulin and 10 ng/ml bFGF. The medium was changed every other day.
After two days of culture, some cells were passaged into a P2 culture, and some were seeded in 12-well tissue culture plates for experimental use. One ml of DMEM/F12/N2 medium was used per well of a 12-well plate at 2×10^4 cells per well. Experimental treatments were initiated the day after passage.
Drug treatments. Stem cells obtained as described above were treated with drugs and subjected to differentiation protocols in the second passage. Cells were plated at a density of 1×10^4 cells per well of a 12-well petridish (Falcon).
Drug treatments were started on the next day. […] The WAY 100635 antagonist compound was used simultaneously with buspirone or serotonin in the blocking experiments.

O=C1CC2(CCCC2)CC(=O)N1CCCCN1CCN(c2ncccn2)CC1 [buspirone, 8-[4-[4-(2-pyrimidinyl)-1-piperazinyl]butyl]-8-azaspiro[4,5]decane-7,9-dione]
% Tuj 1 positive cells (10 nM, Table 2 experiment): 40.0 ± 3.7%
% Tuj 1 positive cells (10 nM, Table 3 experiment): 30.7 ± 2.33%
% Tuj 1 positive cells (30 nM, Table 2 experiment): 41.2 ± 6.7%
% Tuj 1 positive cells (30 nM, Table 3 experiment): 37.4 ± 2.6%
% Tuj 1 positive cells (100 nM, Table 2 experiment): 33.1 ± 2.6%
% Tuj 1 positive cells (100 nM, Table 3 experiment): 46.6 ± 3.8%
% TuJ1 positive cells (100 nM, Table 5 experiment): 54.4 ± 2.1%
% Tuj 1 positive cells (300 nM, Table 2 experiment): 26.1 ± 3.9%
% TuJ1 positive cells (500 nM, Table 4 experiment): 56.8 ± 7.1%
% TuJ1 positive cells (500 nM, Table 5 experiment): 64.8 ± 2.1%
% Tuj 1 positive cells (1000 nM, Table 2 experiment): 21.9 ± 3.9%
% Tuj 1 positive cells (1000 nM, Table 3 experiment): 40.3 ± 2.8%
% TuJ1 positive cells (10 μM, Table 5 experiment): 67.9 ± 10.2%
% TuJ1 positive cells (100 μM, Table 5 experiment): 68.5 ± 6.5%
concentration inducing the highest percentage of neuronal differentiation (FIG. 1, lane 4): ~100 nM
neuronal differentiation of neural stem cells (percent of neurons, TuJ1 positive) (FIG. 1, lanes 2–5, dosage range 10 nM to 300 nM, about 6 days): 40–55%
differentiation of neurons (FIG. 2, lane 3, buspirone 500 nM, untreated control less than 20%): 50%
promotion of neuronal differentiation of neural stem cells (in words) (concentrations from 10 nm to 100 um, Tables 2–5): effective at promoting neuronal differentiation
